Publication PMC9246773, “Assessing the Activity of Antimicrobial Peptides Against Common Marine Bacteria Located in Rotifer (Brachionus plicatilis) Cultures” (Probiotics and Antimicrobial Proteins, 2022)
No end group written: not given here.

How the values were obtained:
bacterial isolates [1] = assay type: cell-based; conditions: for MIC against the probiotic strains, low salt: 18 h
Method: (§1) A range of bacterial species with the potential to be transferred to developing fish larvae as pathogens or probiotics were selected for use in the study (Table 2). Bacterial isolates were stored at −80 °C and thawed, and 25 µL of the isolates was spread onto marine salt agar (MSA) media. All isolates were incubated at 25 °C for 18 h to reach mid-log growth phase. All isolates were sub-cultured and identified using mass spectrometry (MALDI-TOF) using the BioTyper and MBT 8468 library (Bruker Pty Ltd). The isolate Tenacibaculum discolor was plated on Anacker and Oradal’s marine (AOM) media, incubated for 48 h and identified using the aforementioned method. Bacterial isolates were suspended in sterile saline (0.75% NaCl w/v) to 0.5 McFarland standard. […] The bacterial isolates T. discolor and Pseudoalteromonas sp. require marine salts to grow and were not added to MHB (0‰). The isolate T. discolor requires low nutrients to grow, therefore, a separate MHB (25‰) was prepared at a diluted ratio of 1 part MHB and 7 parts artificial seawater (25‰).
(§2) The protocol was followed to determine the minimum inhibitory concentration (MIC) of the selected peptides. Two MIC assays were performed, firstly to determine whether each peptide precipitated in MHB and thereby required acetic acid adjustments (supplementary materials) and secondly, to determine the antimicrobial activity of each peptide in artificial seawater (25‰). Peptide stock solutions (1.3 mg mL^−1) were made by diluting the peptides in sterile deionised water. MHB was made with deionised water to reach a concentration of approaching 0‰ and artificial sea salts (Sigma-Aldrich® S9883) to reach a salinity of 25‰.
Once the acetic acid requirement for each peptide was determined (Table 3), the antimicrobial activity of each peptide was tested at a salinity of 0‰ and 25‰ for all bacterial isolates. A stock solution for peptides that required acetic acid was prepared by a 1:2 dilution in acetic acid (0.02% acetic acid w/v, containing 0.4% BSA) solution. In a 96-well polypropylene microtitre plates (Costar® 3879), 100 µL of this peptide stock was added to the first well for each bacterial isolate tested and serially diluted twofold with acetic acid (0.01% acetic acid w/v, containing 0.2% BSA). From each well, 10 µL of each peptide concentration was added to the corresponding wells of a new 96-well microtitre plate. From each of the bacterial suspensions (0‰), 90 µL was added to each well. […] Twofold serial dilutions were made with MHB (0‰). From each of the bacterial suspensions (0‰), 50 µL was added to each well. The same method was followed for testing peptides in MHB at 25‰. All peptide concentrations ranged from 0.125 to 65 µg mL^−1, and the bacterial suspension in each well was approximately 5 × 10^5 CFU mL^−1. […]

Pseudoalteromonas sp. = assay type: cell-based; conditions: 48 h
Method: as §1, §2
(§3) Once the acetic acid requirement for each peptide was determined (Table 3), the antimicrobial activity of each peptide was tested at a salinity of 0‰ and 25‰ for all bacterial isolates. A stock solution for peptides that required acetic acid was prepared by a 1:2 dilution in acetic acid (0.02% acetic acid w/v, containing 0.4% BSA) solution. In a 96-well polypropylene microtitre plates (Costar® 3879), 100 µL of this peptide stock was added to the first well for each bacterial isolate tested and serially diluted twofold with acetic acid (0.01% acetic acid w/v, containing 0.2% BSA). From each well, 10 µL of each peptide concentration was added to the corresponding wells of a new 96-well microtitre plate. From each of the bacterial suspensions (0‰), 90 µL was added to each well. […] Twofold serial dilutions were made with MHB (0‰). From each of the bacterial suspensions (0‰), 50 µL was added to each well. The same method was followed for testing peptides in MHB at 25‰. All peptide concentrations ranged from 0.125 to 65 µg mL^−1, and the bacterial suspension in each well was approximately 5 × 10^5 CFU mL^−1. The different salinities were used to compare any differences in antimicrobial activity in 0‰ and 25‰ water. […] Each bacterium was trialled in duplicate.

Tenacibaculum discolor = assay type: cell-based; conditions: 48 h
Method: as §1, §2, §3

bacterial isolates [2] = assay type: cell-based; conditions: 48 h
Method: as §1, §2, §3

Vibrio rotiferianus [3] = assay type: cell-based; conditions: 48 h
Method: as §1, §2, §3

Vibrio harveyi [4] = assay type: cell-based; conditions: 48 h
Method: as §1, §2, §3

[5] = test system: Escherichia coli (ATCC 25922); assay type: cell-based; conditions: ATCC 25922, 48 h
Method: as §1, §2, §3

Shewanella sp. [6] = assay type: cell-based; conditions: 48 h
Method: as §1, §2, §3

[7] = test system: Vibrio harveyi (ATCC 35084); assay type: cell-based; conditions: ATCC 35084, 48 h
Method: as §1, §2, §3

Vibrio alginolyticus [8] = assay type: cell-based; conditions: 48 h
Method: as §1, §2, §3

Vibrio scophthalmi [9] = assay type: cell-based; conditions: 48 h
Method: as §1, §2, §3

[10] = cited from earlier work
From the text: A study by Haney determined the aggregation properties of the innate defence regulator (IDR) peptides 1018, 1002 and HH2 in different media such as salts and serum. These IDR peptides are synthetic analogues to natural host defence peptides (HDPs) found in organisms. […] Second-generation peptides are synthetically rearranged IDRs that are created to combat unwa ...

Vibrio rotiferianus [11] = assay type: cell-based; conditions: 48 h; remark: listed apart in the source
Method: as §1, §2
(§4) A broth microdilution protocol was followed to test whether the AMPs precipitated in MHB. The isolates T. discolor and Pseudoalteromonas were excluded from this assay because they required marine salts for growth. The peptides HHC10 and HHC36 previously required acetic acid adjustments according to [63] and were not trialled in this assay. To test if peptides required acetic acid, each peptide was diluted 1:2 in acetic acid (0.02% acetic acid w/v, containing 0.4% BSA) solution. In a 96-well polypropylene microtitre plates (Costar® 3879), 100 µL of this peptide stock was added to the first well for each bacterial isolate tested and serially diluted 2-fold with acetic acid (0.01% acetic acid w/v, containing 0.2% BSA). From each well, 10 µL of each peptide concentration was added to the corresponding wells of a new 96-well microtitre plate. From each of the bacterial suspensions in MHB (0‰), 90 µL was added to each well. […] From each of the bacterial suspensions in MHB (0‰), 50 µL was added to each well. All peptide concentrations ranged from 0.125 - 65µg mL^-1 and the bacterial suspension in each well was approximately 5 × 10^5 CFU mL^-1. Antimicrobial peptides that have an MIC value two or more dilutions higher in the assay with no acetic acid, compared to the assay with acetic acid, require acetic acid adjustments. The 96-well plates were incubated at 25 °C and read at 24 and 48 hours. The MIC was visually determined using a Sensititre™ Vizion™ Digital MIC Viewing System (Thermo Scientific™), and the lowest AMP concentration that had no bacterial growth was recorded as the MIC after 48 hours. Each bacterium was trialled in duplicate.

Vibrio harveyi [12] = assay type: cell-based; conditions: 48 h; remark: listed apart in the source
Method: as §1, §2, §4

[13] = test system: Escherichia coli (ATCC 25922); assay type: cell-based; conditions: ATCC 25922, 48 h; remark: listed apart in the source
Method: as §1, §2, §4

Shewanella sp. [14] = assay type: cell-based; conditions: 48 h; remark: listed apart in the source
Method: as §1, §2, §4

[15] = test system: Vibrio harveyi (ATCC 35084); assay type: cell-based; conditions: ATCC 35084, 48 h; remark: listed apart in the source
Method: as §1, §2, §4

Vibrio alginolyticus [16] = assay type: cell-based; conditions: 48 h; remark: listed apart in the source
Method: as §1, §2, §4

Vibrio scophthalmi [17] = assay type: cell-based; conditions: 48 h; remark: listed apart in the source
Method: as §1, §2, §4

Substance | MIC Pseudoalteromonas sp., salinity 25‰ (Pseudoalteromonas sp.) [µg/mL] | MIC T. discolor, salinity 25‰ (Tenacibaculum discolor) [µg/mL] | MIC V. rotiferianus, salinity 0‰ (Vibrio rotiferianus [3]) [µg/mL] | MIC V. rotiferianus, salinity 25‰ (Vibrio rotiferianus [3]) [µg/mL] | MIC V. harveyi, salinity 0‰ (Vibrio harveyi [4]) [µg/mL] | MIC V. harveyi, salinity 25‰ (Vibrio harveyi [4]) [µg/mL] | MIC E. coli ATCC 25922, salinity 0‰ [5] [µg/mL] | MIC E. coli ATCC 25922, salinity 25‰ [5] [µg/mL] | MIC Shewanella sp., salinity 0‰ (Shewanella sp. [6]) [µg/mL] | MIC Shewanella sp., salinity 25‰ (Shewanella sp. [6]) [µg/mL] | MIC V. harveyi ATCC 35084, salinity 0‰ [7] [µg/mL] | MIC V. harveyi ATCC 35084, salinity 25‰ [7] [µg/mL] | MIC V. alginolyticus, salinity 0‰ (Vibrio alginolyticus [8]) [µg/mL] | MIC V. alginolyticus, salinity 25‰ (Vibrio alginolyticus [8]) [µg/mL] | MIC V. scophthalmi, salinity 0‰ (Vibrio scophthalmi [9]) [µg/mL] | MIC V. scophthalmi, salinity 25‰ (Vibrio scophthalmi [9]) [µg/mL] | cytotoxicity [10] | MIC against the probiotic strains, low salt (bacterial isolates [1]) [µg/mL] | MIC V. rotiferianus, Acetic (Vibrio rotiferianus [11]) [µg/mL] | MIC V. rotiferianus, No acetic (Vibrio rotiferianus [11]) [µg/mL] | other results
KRWWKWIRW-NH2 [HHC10] | > 65 | > 65 | 2.03 | > 65 | 8.13 | > 65 | 4.06 | > 65 | 4.06 | > 65 | 4.06 | > 65 | 2.03 | > 65 | 2.03 | > 65 |  |  |  |  | MIC in low salt conditions (over the bacterial isolates) (bacterial isolates [1]; 48 h): 1 to 10 µg/mL; MIC in artificial seawater (25‰) (over the bacterial isolates) (bacterial isolates [2]): > 65 µg/mL
RRWIVKVRIRRR-NH2 [Peptide 2008] | 65 | > 65 | 0.25 | 65 | 1.02 | > 65 | 4.06 | > 65 | 0.51 | 65 | 1.02 | > 65 | 0.13 | 65 | 0.25 | 65 | caused cytotoxicity | 0.13 to 0.25 | 0.25 | 1.02 | MIC V. harveyi, Acetic (Vibrio harveyi [12]): 1.02 µg/mL; MIC V. harveyi, No acetic (Vibrio harveyi [12]): 1.02 µg/mL; MIC E. coli ATCC 25922, Acetic [13]: 2.03 µg/mL; MIC E. coli ATCC 25922, No acetic [13]: 4.06 µg/mL; MIC Shewanella sp., Acetic (Shewanella sp. [14]): 0.13 µg/mL; MIC Shewanella sp., No acetic (Shewanella sp. [14]): 0.51 µg/mL; MIC V. harveyi ATCC 35084, Acetic [15]: 1.02 µg/mL; MIC V. harveyi ATCC 35084, No acetic [15]: 1.02 µg/mL; MIC V. alginolyticus, Acetic (Vibrio alginolyticus [16]): 0.51 µg/mL; MIC V. alginolyticus, No acetic (Vibrio alginolyticus [16]): 1.02 µg/mL; MIC V. scophthalmi, Acetic (Vibrio scophthalmi [17]): 0.13 µg/mL; MIC V. scophthalmi, No acetic (Vibrio scophthalmi [17]): 0.25 µg/mL
KWRLLIRWRIQK [Peptide 2009] | > 65 | > 65 | 0.13 | 32.5 | 1.02 | > 65 | 2.03 | > 65 | 0.51 | > 65 | 1.02 | > 65 | 1.02 | 65 | < 0.13 | 32.5 | caused cytotoxicity | 0.13 to 0.25 | 0.13 | 1.02 | MIC V. harveyi, Acetic (Vibrio harveyi [12]): 1.02 µg/mL; MIC V. harveyi, No acetic (Vibrio harveyi [12]): 1.02 µg/mL; MIC E. coli ATCC 25922, Acetic [13]: 2.03 µg/mL; MIC E. coli ATCC 25922, No acetic [13]: 2.03 µg/mL; MIC Shewanella sp., Acetic (Shewanella sp. [14]): 0.25 µg/mL; MIC Shewanella sp., No acetic (Shewanella sp. [14]): 1.02 µg/mL; MIC V. harveyi ATCC 35084, Acetic [15]: 1.02 µg/mL; MIC V. harveyi ATCC 35084, No acetic [15]: 1.02 µg/mL; MIC V. alginolyticus, Acetic (Vibrio alginolyticus [16]): 1.02 µg/mL; MIC V. alginolyticus, No acetic (Vibrio alginolyticus [16]): 1.02 µg/mL; MIC V. scophthalmi, Acetic (Vibrio scophthalmi [17]): 0.13 µg/mL; MIC V. scophthalmi, No acetic (Vibrio scophthalmi [17]): 0.51 µg/mL
